pIC50: −log10 of the molar value.
How the values were obtained:
[1] = target: T1, Tyrosine-protein kinase TXK (Homo sapiens) (UniProt P42681); test: Inhibition of TXK (unknown origin) at 1 uM
T1 sequence (whole entry): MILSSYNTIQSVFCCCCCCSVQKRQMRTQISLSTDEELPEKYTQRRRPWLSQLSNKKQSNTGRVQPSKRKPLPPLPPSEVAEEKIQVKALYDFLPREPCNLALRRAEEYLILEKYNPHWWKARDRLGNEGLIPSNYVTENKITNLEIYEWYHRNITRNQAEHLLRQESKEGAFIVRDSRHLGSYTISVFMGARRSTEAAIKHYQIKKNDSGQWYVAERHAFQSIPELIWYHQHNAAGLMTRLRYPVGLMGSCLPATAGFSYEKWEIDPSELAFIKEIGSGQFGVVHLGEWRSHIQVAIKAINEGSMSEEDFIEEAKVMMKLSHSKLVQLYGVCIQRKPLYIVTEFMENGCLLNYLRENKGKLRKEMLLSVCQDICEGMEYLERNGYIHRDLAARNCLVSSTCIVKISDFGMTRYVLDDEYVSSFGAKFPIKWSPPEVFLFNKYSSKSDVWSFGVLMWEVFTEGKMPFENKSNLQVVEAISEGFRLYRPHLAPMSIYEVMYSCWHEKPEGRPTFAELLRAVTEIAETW

[2] = target: Tyrosine-protein kinase Yes (Homo sapiens) (UniProt P07947); test: Inhibition of YES (unknown origin) at 1 uM
[3] = target: Tyrosine-protein kinase Srms (Homo sapiens) (UniProt Q9H3Y6); test: Inhibition of SRMS (unknown origin) at 1 uM
[4] = target: T2, Tyrosine-protein kinase Tec (Homo sapiens) (UniProt P42680); test: Inhibition of TEC (unknown origin) at 1 uM
T2 sequence (whole entry): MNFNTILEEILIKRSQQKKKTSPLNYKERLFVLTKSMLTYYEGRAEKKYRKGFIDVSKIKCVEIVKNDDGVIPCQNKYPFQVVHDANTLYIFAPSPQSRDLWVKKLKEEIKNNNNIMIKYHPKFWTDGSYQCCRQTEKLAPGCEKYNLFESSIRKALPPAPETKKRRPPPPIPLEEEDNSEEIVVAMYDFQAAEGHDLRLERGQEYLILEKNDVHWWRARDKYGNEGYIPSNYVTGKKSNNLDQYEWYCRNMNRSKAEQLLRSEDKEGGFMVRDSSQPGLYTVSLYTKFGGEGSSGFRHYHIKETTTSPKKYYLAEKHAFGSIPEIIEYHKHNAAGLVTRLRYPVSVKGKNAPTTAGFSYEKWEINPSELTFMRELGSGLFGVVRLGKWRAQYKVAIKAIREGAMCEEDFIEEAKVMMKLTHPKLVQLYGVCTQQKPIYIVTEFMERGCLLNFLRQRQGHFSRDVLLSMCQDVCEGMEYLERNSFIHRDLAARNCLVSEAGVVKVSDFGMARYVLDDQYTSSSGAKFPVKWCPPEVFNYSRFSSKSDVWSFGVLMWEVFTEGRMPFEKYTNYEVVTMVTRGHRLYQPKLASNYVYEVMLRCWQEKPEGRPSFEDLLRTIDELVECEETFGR

[5] = target: Proto-oncogene tyrosine-protein kinase Src (Homo sapiens) (UniProt P12931); test: Inhibition of SRC (unknown origin) at 1 uM
[6] = target: Tyrosine-protein kinase Lyn (Homo sapiens) (UniProt P07948); test: Inhibition of LYNB (unknown origin) at 1 uM
[7] = target: Tyrosine-protein kinase Lck (Homo sapiens) (UniProt P06239); test: Inhibition of LCK (unknown origin) at 1 uM
[8] = target: Tyrosine-protein kinase HCK (Homo sapiens) (UniProt P08631); test: Inhibition of HCK (unknown origin) at 1 uM
[9] = target: Tyrosine-protein kinase Fyn (Homo sapiens) (UniProt P06241); test: Inhibition of FYN (unknown origin) at 1 uM
[10] = target: Tyrosine-protein kinase Fgr (Homo sapiens) (UniProt P09769); test: Inhibition of FGR (unknown origin) at 1 uM
[11] = target: Tyrosine-protein kinase FRK (Homo sapiens) (UniProt P42685); test: Inhibition of FRK (unknown origin) at 1 uM
[12] = target: Tyrosine-protein kinase Blk (Homo sapiens) (UniProt P51451); test: Inhibition of BLK (unknown origin) at 1 uM
[13] = Permeability of the compound by PAMPA at pH 7.4; type: ADME; details: read-out: permeability
[14] = Permeability of the compound by PAMPA at pH 5; type: ADME; details: read-out: permeability
[15] = Aqueous solubility of the compound at pH 7.4; type: physicochemical
Cytochrome P450 3A4 = Cytochrome P450 3A4 (Homo sapiens, UniProt P08684); test: Inhibition of CYP3A4 (unknown origin); type: ADME
Cytochrome P450 2D6 = Cytochrome P450 2D6 (Homo sapiens, UniProt P10635); test: Inhibition of CYP2D6 (unknown origin); type: ADME
Cytochrome P450 2C9 = Cytochrome P450 2C9 (Homo sapiens, UniProt P11712); test: Inhibition of CYP2C9 (unknown origin); type: ADME
Cytochrome P450 1A2 = target: T3, Cytochrome P450 1A2 (Homo sapiens, UniProt P05177); test: Inhibition of CYP1A2 (unknown origin); type: ADME
T3 sequence (P05177 whole entry): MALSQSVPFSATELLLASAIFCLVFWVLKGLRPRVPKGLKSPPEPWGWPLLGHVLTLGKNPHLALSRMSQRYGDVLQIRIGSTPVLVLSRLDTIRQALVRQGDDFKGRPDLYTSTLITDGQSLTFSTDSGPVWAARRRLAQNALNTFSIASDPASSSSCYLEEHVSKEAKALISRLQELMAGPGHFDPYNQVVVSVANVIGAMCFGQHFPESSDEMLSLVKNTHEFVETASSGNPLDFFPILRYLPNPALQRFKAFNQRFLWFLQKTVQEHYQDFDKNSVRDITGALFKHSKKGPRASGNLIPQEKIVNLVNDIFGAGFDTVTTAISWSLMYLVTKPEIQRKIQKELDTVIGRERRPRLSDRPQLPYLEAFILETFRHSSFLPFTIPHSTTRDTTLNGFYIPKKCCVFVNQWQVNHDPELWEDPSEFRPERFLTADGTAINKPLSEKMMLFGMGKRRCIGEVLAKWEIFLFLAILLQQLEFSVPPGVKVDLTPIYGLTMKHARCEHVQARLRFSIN

[16] = Clearance in mouse at 2 mg/kg, iv; type: ADME, organism-based; set-up: dose 2 mg/kg, route intravenous; details: in vivo
[17] = Volume of distribution at steady state in mouse at 2 mg/kg, iv; type: ADME, organism-based; set-up: dose 2 mg/kg, route intravenous; details: in vivo, read-out: Vdss
[18] = Half life in mouse at 20 mg/kg, po; type: ADME, organism-based; set-up: dose 20 mg/kg, route oral; details: in vivo
[19] = (§1) Oral bioavailability in mouse at 20 mg/kg; type: ADME, organism-based; details: in vivo
[20] = AUC in mouse at 20 mg/kg, po; type: ADME, organism-based; set-up: dose 20 mg/kg, route oral; details: plasma
[21] = Cmax in mouse at 20 mg/kg, po; type: ADME, organism-based; set-up: dose 20 mg/kg, route oral; details: in vivo
Activated CDC42 kinase 1 [22] = target: T4, Activated CDC42 kinase 1 (Homo sapiens, UniProt Q07912); details: 1 uM
Target sequence in this assay (Q07912 whole entry, looked up): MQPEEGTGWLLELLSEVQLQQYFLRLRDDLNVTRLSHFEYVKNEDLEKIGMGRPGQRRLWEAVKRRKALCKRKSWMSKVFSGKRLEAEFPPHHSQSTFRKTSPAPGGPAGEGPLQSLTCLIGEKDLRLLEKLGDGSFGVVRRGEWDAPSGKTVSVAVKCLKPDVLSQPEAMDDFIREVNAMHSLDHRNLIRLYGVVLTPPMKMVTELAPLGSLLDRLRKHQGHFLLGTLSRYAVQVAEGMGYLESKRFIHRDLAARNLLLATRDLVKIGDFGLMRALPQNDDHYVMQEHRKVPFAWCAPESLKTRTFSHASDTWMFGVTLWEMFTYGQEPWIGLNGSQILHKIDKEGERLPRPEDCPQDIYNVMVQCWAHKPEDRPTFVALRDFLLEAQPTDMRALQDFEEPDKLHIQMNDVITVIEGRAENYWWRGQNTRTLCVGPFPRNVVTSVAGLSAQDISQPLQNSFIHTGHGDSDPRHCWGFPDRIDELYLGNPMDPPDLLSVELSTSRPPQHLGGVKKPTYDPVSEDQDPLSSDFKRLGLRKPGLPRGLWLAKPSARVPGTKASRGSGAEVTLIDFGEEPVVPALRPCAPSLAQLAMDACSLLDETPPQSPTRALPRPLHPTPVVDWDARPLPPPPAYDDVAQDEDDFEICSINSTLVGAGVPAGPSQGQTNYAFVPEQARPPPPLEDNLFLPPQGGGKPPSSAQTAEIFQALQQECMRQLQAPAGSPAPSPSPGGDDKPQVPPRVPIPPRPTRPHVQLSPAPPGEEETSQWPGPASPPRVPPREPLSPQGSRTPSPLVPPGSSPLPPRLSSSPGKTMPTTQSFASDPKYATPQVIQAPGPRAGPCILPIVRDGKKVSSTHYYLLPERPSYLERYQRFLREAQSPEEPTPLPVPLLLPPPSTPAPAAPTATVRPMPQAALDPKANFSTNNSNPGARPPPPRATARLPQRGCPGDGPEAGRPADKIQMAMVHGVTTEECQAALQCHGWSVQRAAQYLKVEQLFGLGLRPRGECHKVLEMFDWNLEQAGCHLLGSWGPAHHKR

Activated CDC42 kinase 1 [23] = target: T4, Activated CDC42 kinase 1
Target sequence in this assay (Q07912 whole entry): as the sequence (Q07912 whole entry, looked up) above

Activated CDC42 kinase 1 [24] = target: T4, Activated CDC42 kinase 1; remark: listed apart in the source
Target sequence in this assay (Q07912 whole entry): as the sequence (Q07912 whole entry, looked up) above

Mus musculus = test: as §1; type: ADME, organism-based; details: in vivo

Sequence of Tyrosine-protein kinase Fyn (Homo sapiens) (P06241 2-537 limits assumed): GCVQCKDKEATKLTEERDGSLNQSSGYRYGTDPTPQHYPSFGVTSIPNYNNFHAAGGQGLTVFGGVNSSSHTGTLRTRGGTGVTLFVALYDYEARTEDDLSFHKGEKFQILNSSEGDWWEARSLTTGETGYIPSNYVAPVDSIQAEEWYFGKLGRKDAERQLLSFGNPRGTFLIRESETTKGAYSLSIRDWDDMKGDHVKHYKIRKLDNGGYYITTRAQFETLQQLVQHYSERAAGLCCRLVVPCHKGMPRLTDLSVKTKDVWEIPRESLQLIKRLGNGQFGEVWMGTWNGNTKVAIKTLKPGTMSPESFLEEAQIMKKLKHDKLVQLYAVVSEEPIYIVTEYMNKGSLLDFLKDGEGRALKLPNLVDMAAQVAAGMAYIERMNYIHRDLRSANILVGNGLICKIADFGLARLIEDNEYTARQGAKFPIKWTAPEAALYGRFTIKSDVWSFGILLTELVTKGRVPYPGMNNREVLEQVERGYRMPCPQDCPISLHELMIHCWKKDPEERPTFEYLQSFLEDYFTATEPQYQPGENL
Sequence of Tyrosine-protein kinase Blk (Homo sapiens) (P51451 2-505 limits assumed): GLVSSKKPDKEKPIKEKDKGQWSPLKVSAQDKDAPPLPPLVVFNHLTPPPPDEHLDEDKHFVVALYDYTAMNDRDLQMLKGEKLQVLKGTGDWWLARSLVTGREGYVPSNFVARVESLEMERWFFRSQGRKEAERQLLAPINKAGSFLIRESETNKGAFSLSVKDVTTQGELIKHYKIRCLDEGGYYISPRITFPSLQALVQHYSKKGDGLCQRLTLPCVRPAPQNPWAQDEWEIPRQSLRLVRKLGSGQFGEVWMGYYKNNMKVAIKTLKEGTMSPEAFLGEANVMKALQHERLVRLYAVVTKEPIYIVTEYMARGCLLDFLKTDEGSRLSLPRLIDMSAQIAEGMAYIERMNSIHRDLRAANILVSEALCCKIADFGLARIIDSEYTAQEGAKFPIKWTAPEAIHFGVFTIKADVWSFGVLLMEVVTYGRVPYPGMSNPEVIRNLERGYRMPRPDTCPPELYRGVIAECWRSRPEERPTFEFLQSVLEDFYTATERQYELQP
Sequence of Tyrosine-protein kinase HCK (Homo sapiens) (P08631 2-526 limits assumed): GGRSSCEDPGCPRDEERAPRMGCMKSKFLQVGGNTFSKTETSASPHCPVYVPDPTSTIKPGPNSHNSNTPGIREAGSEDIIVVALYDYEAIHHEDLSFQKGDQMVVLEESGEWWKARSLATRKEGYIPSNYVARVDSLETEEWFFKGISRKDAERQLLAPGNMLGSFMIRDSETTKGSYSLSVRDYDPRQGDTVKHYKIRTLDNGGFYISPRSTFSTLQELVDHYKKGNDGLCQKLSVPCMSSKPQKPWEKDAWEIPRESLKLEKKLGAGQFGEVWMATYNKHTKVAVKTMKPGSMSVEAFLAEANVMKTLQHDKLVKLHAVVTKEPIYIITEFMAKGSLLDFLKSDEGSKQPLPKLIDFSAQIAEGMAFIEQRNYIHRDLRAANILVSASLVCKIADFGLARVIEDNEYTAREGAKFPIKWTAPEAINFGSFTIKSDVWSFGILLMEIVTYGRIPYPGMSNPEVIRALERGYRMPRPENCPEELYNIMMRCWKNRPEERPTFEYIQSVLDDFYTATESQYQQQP
Sequence of Tyrosine-protein kinase Srms (Homo sapiens) (Q9H3Y6 whole entry): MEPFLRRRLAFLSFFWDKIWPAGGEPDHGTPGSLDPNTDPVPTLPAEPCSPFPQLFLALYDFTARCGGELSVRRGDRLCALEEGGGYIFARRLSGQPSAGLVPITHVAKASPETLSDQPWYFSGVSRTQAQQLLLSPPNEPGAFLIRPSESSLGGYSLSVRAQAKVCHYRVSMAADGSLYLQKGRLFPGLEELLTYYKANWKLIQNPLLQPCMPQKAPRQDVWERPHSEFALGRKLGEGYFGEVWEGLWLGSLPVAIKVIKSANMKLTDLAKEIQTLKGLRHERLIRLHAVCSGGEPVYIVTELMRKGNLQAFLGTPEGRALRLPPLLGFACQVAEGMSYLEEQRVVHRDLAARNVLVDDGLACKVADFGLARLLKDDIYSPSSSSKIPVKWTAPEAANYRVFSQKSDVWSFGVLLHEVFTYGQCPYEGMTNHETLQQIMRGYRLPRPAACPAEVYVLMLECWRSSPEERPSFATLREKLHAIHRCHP
Sequence of Cytochrome P450 2D6 (P10635 whole entry): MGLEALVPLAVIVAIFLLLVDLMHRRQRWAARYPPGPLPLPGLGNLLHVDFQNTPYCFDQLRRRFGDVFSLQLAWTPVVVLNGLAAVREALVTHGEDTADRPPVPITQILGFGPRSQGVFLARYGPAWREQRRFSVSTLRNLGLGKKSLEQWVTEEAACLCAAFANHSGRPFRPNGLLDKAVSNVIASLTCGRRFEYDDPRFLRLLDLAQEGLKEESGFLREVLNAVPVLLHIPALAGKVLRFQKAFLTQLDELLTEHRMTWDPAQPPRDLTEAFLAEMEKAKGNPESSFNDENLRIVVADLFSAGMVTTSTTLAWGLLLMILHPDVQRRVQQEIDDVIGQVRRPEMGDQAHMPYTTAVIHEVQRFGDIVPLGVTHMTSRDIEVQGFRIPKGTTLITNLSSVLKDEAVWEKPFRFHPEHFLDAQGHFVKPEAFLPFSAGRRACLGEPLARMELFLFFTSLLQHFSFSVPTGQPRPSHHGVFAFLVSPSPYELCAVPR
Sequence of Tyrosine-protein kinase FRK (Homo sapiens) (P42685 whole entry): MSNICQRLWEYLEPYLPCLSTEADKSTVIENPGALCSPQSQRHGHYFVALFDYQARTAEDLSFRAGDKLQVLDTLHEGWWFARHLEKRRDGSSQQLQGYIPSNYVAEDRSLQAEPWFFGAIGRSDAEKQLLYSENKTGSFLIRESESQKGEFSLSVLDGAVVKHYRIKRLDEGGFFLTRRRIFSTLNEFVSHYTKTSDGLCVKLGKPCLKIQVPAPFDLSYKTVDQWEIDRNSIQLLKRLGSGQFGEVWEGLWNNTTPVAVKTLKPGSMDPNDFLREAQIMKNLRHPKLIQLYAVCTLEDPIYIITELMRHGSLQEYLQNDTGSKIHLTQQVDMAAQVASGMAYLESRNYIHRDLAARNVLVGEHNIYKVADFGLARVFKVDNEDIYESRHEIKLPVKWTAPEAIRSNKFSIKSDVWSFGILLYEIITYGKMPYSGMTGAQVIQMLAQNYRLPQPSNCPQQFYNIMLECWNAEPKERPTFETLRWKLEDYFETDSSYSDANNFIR
Sequence of Cytochrome P450 2C9 (P11712 whole entry): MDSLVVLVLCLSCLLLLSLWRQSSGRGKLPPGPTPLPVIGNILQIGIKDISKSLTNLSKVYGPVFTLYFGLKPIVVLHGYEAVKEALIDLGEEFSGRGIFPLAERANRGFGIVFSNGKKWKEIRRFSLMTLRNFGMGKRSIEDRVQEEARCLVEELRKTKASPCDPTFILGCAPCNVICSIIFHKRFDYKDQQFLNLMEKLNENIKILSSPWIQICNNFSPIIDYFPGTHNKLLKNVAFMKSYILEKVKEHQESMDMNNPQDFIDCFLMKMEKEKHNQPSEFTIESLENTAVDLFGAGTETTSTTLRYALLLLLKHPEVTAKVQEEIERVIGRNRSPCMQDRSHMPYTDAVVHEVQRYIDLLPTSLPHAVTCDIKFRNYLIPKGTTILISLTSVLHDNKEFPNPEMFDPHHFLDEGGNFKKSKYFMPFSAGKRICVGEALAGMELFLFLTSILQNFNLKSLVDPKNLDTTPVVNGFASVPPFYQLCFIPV

| Compound | clearance [16] [mL/min/kg] | Vd [17] [L/kg] | half-life [18] [h] | bioavailability [19] [%] | AUC [20] [ng·h/mL] | Cmax [21] [µM] | pIC50 (Activated CDC42 kinase 1 [23]) | further results |
| --- | --- | --- | --- | --- | --- | --- | --- | --- |
| COc1cc(Oc2ccccc2)ccc1-c1nc([C@H]2C[C@@](C)(O)C2)n2ccnc(N)c12 | 39 | 1.8 | 3.8 | 98 | 8480 | 5.9 | – | inhibition [1]: > 80%; inhibition [2]: > 80%; inhibition [3]: > 80%; inhibition [4]: > 80%; inhibition [5]: > 80%; inhibition [6]: > 80%; inhibition [7]: > 80%; inhibition [8]: > 80%; inhibition [9]: > 80%; inhibition [10]: > 80%; inhibition [11]: > 80%; inhibition [12]: > 80%; Papp [13]: 591 ×10⁻⁶ cm/s; Papp [14]: 280 ×10⁻⁶ cm/s; solubility [15]: > 100 µM; pIC50 (Cytochrome P450 3A4): < 4.70; pIC50 (Cytochrome P450 2D6): < 4.70; pIC50 (Cytochrome P450 2C9): < 4.70; pIC50 (Cytochrome P450 1A2): < 4.70; inhibition (Activated CDC42 kinase 1 [22]): 100% |
| c1ccc(-c2c(-c3ccc(OCCN4CCCC4)cc3)[nH]c3ncnc(NCC4SCCS4)c23)cc1 | – | – | – | – | – | – | 8.00 | – |
| CC(O)(c1ccccc1)c1ccc(-c2nc([C@H]3C[C@@](C)(O)C3)n3ccnc(N)c23)cc1 (mixture of isomers) | 89 | 3.3 | 2.6 | 105 | 3940 | 4.6 | – | – |
| C[C@]1(O)C[C@@H](c2nc(-c3ccc(Oc4ccccc4)cc3)c3c(N)nccn32)C1 | 62 | 1.7 | 4.9 | 87 | 4680 | 11.2 | – | – |
| Nc1nccn2c(C3CCC3)nc(-c3ccn(Cc4ccccc4)c(=O)c3)c12 | – | – | – | – | – | – | – | pIC50 (Activated CDC42 kinase 1 [24]): < 5.00 |
| c1ccc(-c2oc3ncnc(NC[C@@H]4CCCO4)c3c2-c2ccccc2)cc1 | – | – | – | – | – | – | 6.21 | – |
| Nc1nccn2c(C3CCC3)nc(-c3ccc(C(O)c4ccccc4)cc3)c12 (stereo not given) | – | – | – | – | – | – | – | pIC50 (Activated CDC42 kinase 1 [24]): 6.55 |

The next lines start with results.

| clearance [16] [mL/min/kg] | Vd [17] [L/kg] | half-life [18] [h] | bioavailability [19] [%] | AUC [20] [ng·h/mL] | Cmax [21] [µM] | pIC50 (Activated CDC42 kinase 1 [23]) | Compound | further results |
| --- | --- | --- | --- | --- | --- | --- | --- | --- |
| 135 | 9 | 5.5 | 50 | 1240 | 0.9 | – | Nc1nccn2c(C3CCC3)nc(-c3ccc(Oc4ccccc4)cc3)c12 | – |
| 63 | 1.7 | 4.3 | – | 8540 | 5 | – | C[C@]1(O)C[C@@H](c2nc(-c3ccc(C(F)(F)c4ccccc4)cc3)c3c(N)nccn32)C1 | F (Mus musculus): 160% |
| – | – | – | – | – | – | 7.70 | COC(C)(C)CCn1nc(Nc2c(C)cccc2C)c2cnc(Nc3ccc(OCCN4CCCC4)c(F)c3)nc21 | – |

From ChEMBL document CHEMBL2321683, “Discovery of potent, selective and orally bioavailable imidazo[1,5-a]pyrazine derived ACK1 inhibitors” (Bioorg Med Chem Lett, 2013)
